Values joined by “and” are separate entries in the source; they are usually repeats but may differ in a detail not shown here. Equal entries are not always repeated.
Test system: rat primary hepatocytes
Assay: Metabolic disposition of [^14C]-Compound 1 and [^14C]-2′-C-methyl guanosine in rat primary hepatocytes (incubation medium, cellular extracts, nucleotide levels)
Assay type: in vitro ADME, Sprague Dawley rat
Protocol: Primary hepatocytes: Freshly isolated cells from animal and human liver were obtained in suspension on ice. Cells were pelleted by centrifugation at 70-75×g (rat) or 95-90×g (monkey and human) and resuspended at 0.8 million cells per mL of platting medium (William's E supplemented with 5% FBS, 0.5% penicillin-streptomycin, 1% L-glutamine, 4 μg/mL insulin and 1 μM dexamethasone). Multi-well collagen I-coated plates (rat tail collagen type I; 12- or 6-well) were then seeded by addition of 1 mL (12-well; 0.8 million cells/well) or 2 mL (6-well; 1.6 million cells/well) of cell suspension. The plates were gently shaken to evenly distribute the cells and placed in an incubator at 37° C. for approximately 4 to 6 hours to allow cells to attach. Once cells were attached, the platting medium was removed and replaced with hepatocyte culture medium (William's E supplemented with penicillin-streptomycin, 1% L-glutamine, 1% insulin-transferrin-selenium and 0.1 μM dexamethasone). Cells were left overnight in an incubator at 37° C. to acclimatize to culture and the medium.
Hepatocyte incubations with radiolabeled Compound 1 and 2′-C-methyl guanosine, both labeled in the C-8 position of the guanine moiety, were conducted at a final volume of 2.0 mL hepatocyte culture medium/well ([…]). Culture medium from overnight incubation of cells was removed and replaced with fresh medium, pre-warmed to 37° C., containing 1 or 10 μM [^14C]-Compound 1 ([…]) or [^14C]-2′-C-methyl guanosine (127 DPM/μmol) from a stock solution in DMSO (final DMSO concentration was 0.1%) or 50% ethanol (final ethanol concentration was 0.2%). After 1, 4, 8 and 24 hours, 0.5-1.0 mL of incubation medium was removed and stored at −20° C. until analysis (described below). The remaining medium was discarded and cell monolayers were carefully washed two times with ice-cold PBS. Following the last wash, all PBS was carefully removed and 1.0 mL of extraction solution (ice-cold 70% methanol) added. Cells were scrapped off and suspended in the extraction solution, transferred to 2 mL polypropylene microfuge tubes and intracellular contents extracted overnight at −20° C.
Preliminary identification of putative metabolites was conducted by comparing the retention time of observed metabolites in incubation medium and cellular extracts with retention times obtained with chemically synthesized standards using the chromatography conditions described below. Further identification of 2′-C-methyl guanosine nucleotides (mono-, di- and triphosphate) was carried out by incubating cellular extract samples with alkaline phosphatase (10 units for 60 min at 37° C.) and comparing the HPLC retention times of the resulting nucleosides with that of authentic 2′-C-methyl guanosine.
Cellular extracts were prepared by centrifugation at 16,000 RCF using an Eppendorf microcentrifuge (Eppendorf, Model 5415D) for 10 min to remove cellular debris. An aliquot of 5-10 μL of the supernatant was added to 5 mL of EcoLite™ (MP, Irvine, Calif.) liquid scintillation cocktail and radioactivity measured by liquid scintillation counting (LSC) using a Beckman Coulter LS6500 multipurpose liquid scintillation counter (Beckman Instruments, Fullerton, Calif.). The remaining sample was then dried using a Labconco refrigerated centrivap concentrator (Labconco, Kansas City, Mo.). Dry extracts were reconstituted in 120 μL of HPLC-grade water and centrifuged at 16,000 RCF using an Eppendorf microcentrifuge for 10 min. Prior to HPLC analysis (described below), radioactivity of the concentrated extracts was measured by LSC using 5 μL aliquots. Extraction recovery was then determined by comparing total radioactivity in extracts before and after drying. The remaining extract was then analyzed by HPLC with online radioactivity detection using a Flow Scintillation Analyzer Radiomatic™ 515TR. Radioactivity in the separated components was quantified by integrating the peaks using Flo-One™ Software (Perkin Elmer Life Sciences). […]

[1] = rat hepatocytes (Rs458), 1 μM [^14C]-Compound 1, 0 h
[2] = rat hepatocytes (Rs458), 1 μM [^14C]-Compound 1, 1 h
[3] = rat hepatocytes (Rs458), 1 μM [^14C]-Compound 1, 8 h
[4] = rat hepatocytes (Rs458), 1 μM [^14C]-Compound 1, 24 h
[5] = rat hepatocytes Rs448, 10 μM [^14C]-2′-C-methyl guanosine, 1 h
[6] = rat hepatocytes Rs448, 10 μM [^14C]-2′-C-methyl guanosine, 4 h
[7] = rat hepatocytes Rs448, 10 μM [^14C]-2′-C-methyl guanosine, 8 h
[8] = rat hepatocytes Rs448, 10 μM [^14C]-2′-C-methyl guanosine, 24 h
[9] = rat hepatocytes Rs458, 1 μM [^14C]-2′-C-methyl guanosine, 1 h
[10] = rat hepatocytes Rs458, 1 μM [^14C]-2′-C-methyl guanosine, 8 h
[11] = rat hepatocytes Rs458, 1 μM [^14C]-2′-C-methyl guanosine, 24 h
[12] = rat hepatocytes Rs458, 10 μM [^14C]-2′-C-methyl guanosine, 1 h
[13] = rat hepatocytes Rs458, 10 μM [^14C]-2′-C-methyl guanosine, 4 h
[14] = rat hepatocytes Rs458, 10 μM [^14C]-2′-C-methyl guanosine, 8 h
[15] = rat hepatocytes Rs458, 10 μM [^14C]-2′-C-methyl guanosine, 24 h

C[C@@]1(O)[C@H](O)[C@@H](CO)O[C@H]1n1cnc2c(=O)[nH]c(N)nc21 [2′-C-methyl guanosine, 9-(2-C-methyl-β-D-ribofuranosyl)guanine, reference compound]
metabolites observed in cellular extracts (% of total radioactivity) (rat hepatocytes (Rs448, Rs458), 10 μM [^14C]-Compound 1, 1 h): 1.84% and 1.75%
metabolites observed in cellular extracts (% of total radioactivity) (rat hepatocytes (Rs448, Rs458), 10 μM [^14C]-Compound 1, 4 h): 5.04% and 3.78%
metabolites observed in cellular extracts (% of total radioactivity) (rat hepatocytes (Rs448, Rs458), 10 μM [^14C]-Compound 1, 8 h): 8.77% and 4.95%
metabolites observed in cellular extracts (% of total radioactivity) (rat hepatocytes (Rs448, Rs458), 10 μM [^14C]-Compound 1, 24 h): 14.7% and 16.9%
metabolites observed in medium (% of total radioactivity) [1]: BLD
metabolites observed in cellular extracts (% of total radioactivity) [2]: 1.01%
metabolites observed in medium (% of total radioactivity) [2]: BLD
metabolites observed in cellular extracts (% of total radioactivity) [3]: 5.58%
metabolites observed in medium (% of total radioactivity) [3]: 29.4%
metabolites observed in cellular extracts (% of total radioactivity) [4]: 13.1%
metabolites observed in medium (% of total radioactivity) [4]: 58% and 58.3%
metabolites observed in medium (% of total radioactivity) (rat hepatocytes (lots Rs448, Rs458), 10 μM [^14C]-Compound 1, 0 h): BLD^b and BLD
metabolites observed in medium (% of total radioactivity) (rat hepatocytes (lots Rs448, Rs458), 10 μM [^14C]-Compound 1, 1 h): 0.8% and 0.5%
metabolites observed in medium (% of total radioactivity) (rat hepatocytes (lots Rs448, Rs458), 10 μM [^14C]-Compound 1, 4 h): 17.5% and 10.1% and 17.0% and 10.0%
metabolites observed in medium (% of total radioactivity) (rat hepatocytes (lots Rs448, Rs458), 10 μM [^14C]-Compound 1, 8 h): 41.5% and 23.4% and 41.0% and 23.0%
metabolites observed in medium (% of total radioactivity) (rat hepatocytes (lots Rs448, Rs458), 10 μM [^14C]-Compound 1, 24 h): 67% and 68.5% and 65.3% and 69.0% and 65.0%
Major metabolites observed in cellular extracts (% of total radioactivity) [5]: 93.6 % of total radioactivity
Major metabolites observed in cellular extracts (% of total radioactivity) [6]: 78.6 % of total radioactivity
Major metabolites observed in cellular extracts (% of total radioactivity) [7]: 69.2 % of total radioactivity
Major metabolites observed in cellular extracts (% of total radioactivity) [8]: 51.5 % of total radioactivity
Major metabolites observed in cellular extracts (% of total radioactivity) [9]: 93.4 % of total radioactivity
Major metabolites observed in cellular extracts (% of total radioactivity) [10]: 68.7 % of total radioactivity
Major metabolites observed in cellular extracts (% of total radioactivity) [11]: 49.2 % of total radioactivity
Major metabolites observed in cellular extracts (% of total radioactivity) [12]: 94.5 % of total radioactivity
Major metabolites observed in cellular extracts (% of total radioactivity) [13]: 79.8 % of total radioactivity
Major metabolites observed in cellular extracts (% of total radioactivity) [14]: 67.2 % of total radioactivity
Major metabolites observed in cellular extracts (% of total radioactivity) [15]: 47.1 % of total radioactivity

C[C@@]1(O)[C@H](O)[C@@H](COP(=O)(O)OP(=O)(O)O)O[C@H]1n1cnc2c(=O)[nH]c(N)nc21 [Compound 6, [(2R)-2-methyl-β-D-ribofuranosyl]guanine 5′-diphosphate]
metabolites observed in cellular extracts (% of total radioactivity) (rat hepatocytes (Rs448, Rs458), 10 μM [^14C]-Compound 1, 1 h, listed as Compd 6): 11.4% and 12.3%
metabolites observed in cellular extracts (% of total radioactivity) (rat hepatocytes (Rs448, Rs458), 10 μM [^14C]-Compound 1, 4 h, listed as Compd 6): 13.4% and 16.7%
metabolites observed in cellular extracts (% of total radioactivity) (rat hepatocytes (Rs448, Rs458), 10 μM [^14C]-Compound 1, 8 h, listed as Compd 6): 12.7% and 16.8%
metabolites observed in cellular extracts (% of total radioactivity) (rat hepatocytes (Rs448, Rs458), 10 μM [^14C]-Compound 1, 24 h, listed as Compd 6): 15.2% and 14.6%
2′-C-methyl guanosine nucleotide levels in cellular extracts [1]: BLD (BLD = below limit of detection (0.02 pmol/million cells))
2′-C-methyl guanosine nucleotide levels in cellular extracts [2]: 20.0 pmol/million cells
metabolites observed in cellular extracts (% of total radioactivity) [2]: 13.0%
2′-C-methyl guanosine nucleotide levels in cellular extracts [3]: 41.2 pmol/million cells
metabolites observed in cellular extracts (% of total radioactivity) [3]: 13.27%
2′-C-methyl guanosine nucleotide levels in cellular extracts [4]: 30.0 pmol/million cells
metabolites observed in cellular extracts (% of total radioactivity) [4]: 18.1%
2′-C-methyl guanosine nucleotide levels in cellular extracts (rat hepatocytes Rs448, 10 μM [^14C]-2′-C-methyl guanosine, 0 h): 0 pmol/million cells
2′-C-methyl guanosine nucleotide levels in cellular extracts [5]: 7.00 pmol/million cells
Major metabolites observed in cellular extracts (% of total radioactivity) [5]: 1.24 % of total radioactivity
2′-C-methyl guanosine nucleotide levels in cellular extracts [6]: 28.0 pmol/million cells
Major metabolites observed in cellular extracts (% of total radioactivity) [6]: 3.54 % of total radioactivity
2′-C-methyl guanosine nucleotide levels in cellular extracts [7]: 47.0 pmol/million cells
Major metabolites observed in cellular extracts (% of total radioactivity) [7]: 4.76 % of total radioactivity
2′-C-methyl guanosine nucleotide levels in cellular extracts [8]: 101 pmol/million cells
Major metabolites observed in cellular extracts (% of total radioactivity) [8]: 10.4 % of total radioactivity
2′-C-methyl guanosine nucleotide levels in cellular extracts (rat hepatocytes Rs448, 10 μM [^14C]-Compound 1, 0 h): 0 pmol/million cells
2′-C-methyl guanosine nucleotide levels in cellular extracts (rat hepatocytes Rs448, 10 μM [^14C]-Compound 1, 1 h): 112 pmol/million cells
2′-C-methyl guanosine nucleotide levels in cellular extracts (rat hepatocytes Rs448, 10 μM [^14C]-Compound 1, 4 h): 269 pmol/million cells
2′-C-methyl guanosine nucleotide levels in cellular extracts (rat hepatocytes Rs448, 10 μM [^14C]-Compound 1, 8 h): 311 pmol/million cells
2′-C-methyl guanosine nucleotide levels in cellular extracts (rat hepatocytes Rs448, 10 μM [^14C]-Compound 1, 24 h): 215 pmol/million cells
2′-C-methyl guanosine nucleotide levels in cellular extracts (rat hepatocytes Rs458, 1 μM [^14C]-2′-C-methyl guanosine, 0 h): BLD (BLD = below limit of detection (0.02 pmol/million cells))
2′-C-methyl guanosine nucleotide levels in cellular extracts [9]: 0.85 pmol/million cells
Major metabolites observed in cellular extracts (% of total radioactivity) [9]: 1.50 % of total radioactivity
2′-C-methyl guanosine nucleotide levels in cellular extracts [10]: 4.00 pmol/million cells
Major metabolites observed in cellular extracts (% of total radioactivity) [10]: 5.14 % of total radioactivity
2′-C-methyl guanosine nucleotide levels in cellular extracts [11]: 8.00 pmol/million cells
Major metabolites observed in cellular extracts (% of total radioactivity) [11]: 9.88 % of total radioactivity
2′-C-methyl guanosine nucleotide levels in cellular extracts (rat hepatocytes Rs458, 10 μM [^14C]-2′-C-methyl guanosine, 0 h): 0 pmol/million cells
2′-C-methyl guanosine nucleotide levels in cellular extracts [12]: 5.60 pmol/million cells
Major metabolites observed in cellular extracts (% of total radioactivity) [12]: 1.08 % of total radioactivity
2′-C-methyl guanosine nucleotide levels in cellular extracts [13]: 28.0 pmol/million cells
Major metabolites observed in cellular extracts (% of total radioactivity) [13]: 4.01 % of total radioactivity
2′-C-methyl guanosine nucleotide levels in cellular extracts [14]: 48.0 pmol/million cells
Major metabolites observed in cellular extracts (% of total radioactivity) [14]: 5.42 % of total radioactivity
2′-C-methyl guanosine nucleotide levels in cellular extracts [15]: 91.0 pmol/million cells
Major metabolites observed in cellular extracts (% of total radioactivity) [15]: 9.65 % of total radioactivity
2′-C-methyl guanosine nucleotide levels in cellular extracts (rat hepatocytes Rs458, 10 μM [^14C]-Compound 1, 0 h): 0 pmol/million cells
2′-C-methyl guanosine nucleotide levels in cellular extracts (rat hepatocytes Rs458, 10 μM [^14C]-Compound 1, 1 h): 129 pmol/million cells
2′-C-methyl guanosine nucleotide levels in cellular extracts (rat hepatocytes Rs458, 10 μM [^14C]-Compound 1, 4 h): 326 pmol/million cells
2′-C-methyl guanosine nucleotide levels in cellular extracts (rat hepatocytes Rs458, 10 μM [^14C]-Compound 1, 8 h): 375 pmol/million cells
2′-C-methyl guanosine nucleotide levels in cellular extracts (rat hepatocytes Rs458, 10 μM [^14C]-Compound 1, 24 h): 207 pmol/million cells

Source: patent publication US20100003217A1, “Compounds and Pharmaceutical Compositions for the Treatment of Viral Infections” (priority 2008, published 2010)
